Measurements as given in patent US5317021A, “3-mercapto-glutamic acid derivatives” (ONO Pharmaceutical Co., Ltd., priority 1988, dated 1994).
pIC50: −log10 of the molar value. Where a name gives a salt, the structure may show the parent alone.

Columns and labels:
[1] = molecular target: T1, enkephalinase (Mus musculus, UniProt Q61391); test: Inhibitory effect on enkephalinase; assay type: biochemical, ddY male mice; details: substrate Suc-Ala-Ala-Phe-AMC 10^-4 M, 37° C., 60 minutes, mouse striata enzyme
T1 construct: striata obtained from ddY male mice; from tissue; host or cells: striata of ddY male mice (washed 20000 g membrane pellet, not purified)
T1 sequence (Q61391 1-750): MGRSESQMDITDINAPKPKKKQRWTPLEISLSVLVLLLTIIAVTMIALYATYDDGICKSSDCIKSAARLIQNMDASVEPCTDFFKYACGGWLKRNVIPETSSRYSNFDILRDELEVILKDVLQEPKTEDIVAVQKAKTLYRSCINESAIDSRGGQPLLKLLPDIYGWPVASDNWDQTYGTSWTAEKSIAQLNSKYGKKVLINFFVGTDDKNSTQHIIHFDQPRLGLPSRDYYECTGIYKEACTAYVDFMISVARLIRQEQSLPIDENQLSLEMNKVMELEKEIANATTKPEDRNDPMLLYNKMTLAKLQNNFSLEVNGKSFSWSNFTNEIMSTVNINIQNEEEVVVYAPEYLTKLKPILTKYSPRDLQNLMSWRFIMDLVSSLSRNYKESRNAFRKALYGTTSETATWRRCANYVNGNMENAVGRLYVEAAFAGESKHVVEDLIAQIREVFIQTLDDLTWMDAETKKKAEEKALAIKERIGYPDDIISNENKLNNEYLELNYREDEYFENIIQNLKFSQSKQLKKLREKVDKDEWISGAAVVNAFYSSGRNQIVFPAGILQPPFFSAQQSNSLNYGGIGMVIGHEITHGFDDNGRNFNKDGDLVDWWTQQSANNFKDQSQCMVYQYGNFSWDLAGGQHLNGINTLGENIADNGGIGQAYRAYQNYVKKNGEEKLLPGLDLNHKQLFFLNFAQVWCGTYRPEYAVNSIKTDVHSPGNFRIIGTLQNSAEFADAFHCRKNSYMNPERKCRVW
Description: That is, to striata obtained from ddY male mice (weighing 28~30 g), Tris hydrochloric acid buffer solution (referred to "Tris buffer" hereafter) was added. The mixture was homogenised and centrifuged (1000 g×5 minites). The supernatant obtained was further centrifuged (20000 g×1 minutes). The resulting pellet was washed with cold Tris buffer and resuspended in a fresh Tris buffer to use as enzyme source of enkephalinase.
Incubation at 37° C. for 60 minutes was started by adding thereto […] of enzyme solution (×30 dilution of the above enzyme source) and 50 μl of a substrate solution containing succinyl-alanyl-alanyl-phenylalanyl (7-amido-4-methyl)coumarin (i.e. Suc-Ala-Ala-Phe-AMC, final concentration: 10^-4 M) dissolved in 50 mM HEPES/NaOH buffer (pH 7.4). The reaction was stopped by the addition of thiorphan (10^-6 M) and by heating the samples at 95° C. for 15 minutes. […] Blanks values were obtained by the same procedure as above described by using thiorphan (10^-6 M) instead of the test compound.

[2] = tested on: bradykinin-induced biting-like response; test: Inhibitory effect on bradykinin-induced biting-like response; assay type: in vivo, male Spraque-Dawley rats; details: for Number of rats which did not show the biting-like response, 30 minutes after p.o. / Number of rats which did not show the biting-like response, 60 minutes after p.o. / Number of rats which did not show the biting-like response, 90 minutes after p.o. / Number of rats which did not show the biting-like response, 120 minutes after p.o.: 100 mg/kg p.o., number of rats 8; for Number of rats which did not show the biting-like response, 10 minutes after i.p. / Number of rats which did not show the biting-like response, 40 minutes after i.p. / Number of rats which did not show the biting-like response, 70 minutes after i.p. / Number of rats which did not show the biting-like response, 100 minutes after i.p.: 10 mg/kg i.p., number of rats 5 (Example 1), 8 (Example 12(5))
Description: The experiment was carried out according to the method as described in Journal of Pharmacological Methods, Z, 271 (1982). That is, male Spraque-Dawley rats (weighing 200~300 g) were used. Implantation of the bradykinin (0.63~1.25 μg in 0.5~1.0 μl of distilled water) - filled cannula onto the tooth pulp and the fixation of it on the lower incisor surfaces were carried out under ethyl ether anesthesia. A micro-application of bradykinin onto the tooth pulp produced biting-like response and some other aversive behaviors such as jumping, struggling, rubbing, scratching, escape, head-jerk and body-jerk within 1 minute.
The test compounds suspended in 0.5% carboxymethyl cellulose solution were administered either intraperitoneally or orally. After regular intervals bradykinin was administered.

[3] = acute toxicity (LD50), intraperitoneal injection in mice; details: mouse, in vivo, ip

Row | SMILES | pIC50 [1] | also measured
1 | O=C(CC[C@H](NC(=O)C(CS)Cc1ccccc1)C(=O)O)Nc1ccccc1 (stereo partly drawn) [Example 11, N-(3-mercapto-2RS-benzylpropionyl)-γ-anilino-L-glutamic acid α-sodium salt] | 7.17 | 
2 | O=C(O)CC[C@H](NC(=O)C(CS)CC1CCCCC1)C(=O)Nc1ccccc1 (stereo partly drawn) [1(1), N-(3-mercapto-2RS-cyclohexylmethyl-propionyl)-α-anilino-L-glutamic acid] | 6.40 | 
3 | O=C(O)CC[C@H](NC(=O)[C@@H](CSC1OC(=O)c2ccccc21)Cc1ccccc1)C(=O)Nc1ccccc1 (stereo partly drawn) [Example 16, N-[3-(phthalid-3yl)thio-2S-benzylpropionyl]-α-anilino-L-glutamic acid] |  | Number of rats which did not show the biting-like response, 30 minutes after p.o. [2]: 3; Number of rats which did not show the biting-like response, 60 minutes after p.o. [2]: 6; Number of rats which did not show the biting-like response, 90 minutes after p.o. [2]: 2; Number of rats which did not show the biting-like response, 120 minutes after p.o. [2]: 0; LD50 [3]: 500 to 1000 mg/kg
4 | COc1ccc(NC(=O)[C@H](CC(=O)O)NC(=O)C(CS)Cc2ccccc2)cc1 (single isomer, unassigned) [8(4), N-(3-mercapto-2RS-benzylpropionyl)-α-(4-methoxyanilino)-L-aspartic acid] | 7.30 | 
5 | O=C(O)CC[C@H](NC(=O)C(CS)Cc1ccccc1)C(=O)Nc1ccccc1 (stereo partly drawn) [Example 1, N-(3-mercapto-2RS-benzylpropionyl)-α-anilino-L-glutamic acid] | 7.68 | Number of rats which did not show the biting-like response, 10 minutes after i.p. [2]: 4; Number of rats which did not show the biting-like response, 40 minutes after i.p. [2]: 4; Number of rats which did not show the biting-like response, 70 minutes after i.p. [2]: 3; Number of rats which did not show the biting-like response, 100 minutes after i.p. [2]: 1
6 | O=C(O)CC[C@H](NC(=O)C(CS)Cc1ccccc1)C(=O)Nc1ccc(C(=O)O)cc1 (stereo partly drawn) [3(2), N-(3-mercapto-2RS-benzylpropionyl)-α-(4-carboxyanilino)-L-glutamic acid] | 8.44 | 
7 | NS(=O)(=O)c1ccc(NC(=O)[C@H](CCC(=O)O)NC(=O)C(CS)Cc2ccccc2)cc1 (stereo partly drawn) [3(8), N-(3-mercapto-2RS-benzylpropionyl)-α-(4-sulfamoylanilino)-L-glutamic acid] | 7.64 | 
8 | O=C(C[C@H](NC(=O)C(CS)Cc1ccccc1)C(=O)O)Nc1ccc(I)cc1 (stereo partly drawn) [12(5), N-(3-mercapto-2RS-benzylpropionyl)-β-(4-iodoanilino)-L-aspartic acid] | 8.55 | Number of rats which did not show the biting-like response, 10 minutes after i.p. [2]: 4; Number of rats which did not show the biting-like response, 40 minutes after i.p. [2]: 2; Number of rats which did not show the biting-like response, 70 minutes after i.p. [2]: 1; Number of rats which did not show the biting-like response, 100 minutes after i.p. [2]: 0
9 | COc1ccc(CC(CS)C(=O)N[C@@H](CCC(=O)O)C(=O)Nc2ccccc2)cc1 (stereo partly drawn) [1(2), N-[3-mercapto-2RS-(4-methoxybenzyl)-propionyl]-α-anilino-L-glutamic acid] | 7.29 | 
10 | COC(=O)C[C@H](NC(=O)C(CS)Cc1ccccc1)C(=O)Nc1ccc2c(c1)C(c1ccccc1)=NCCN2C (stereo partly drawn) [Example 4, N-(3-mercapto-2RS-benzylpropionyl)-L-aspartic acid α-(2,3-dihydro-1-methyl-5-phenyl-1H-1,4-benzodiazepin-7yl)amide β-methyl ester] | 6.82 | 
11 | O=C(O)CC[C@H](NC(=O)[C@@H](CSC(=O)C(c1ccccc1)c1ccccc1)Cc1ccccc1)C(=O)Nc1ccccc1 [13(5), N-(3-diphenylacetylthio-2S-benzylpropionyl)-α-anilino-L-glutamic acid] |  | Number of rats which did not show the biting-like response, 30 minutes after p.o. [2]: 1; Number of rats which did not show the biting-like response, 60 minutes after p.o. [2]: 7; Number of rats which did not show the biting-like response, 90 minutes after p.o. [2]: 1; Number of rats which did not show the biting-like response, 120 minutes after p.o. [2]: 1

Further compounds by rising pIC50 [1], results first:

Row | pIC50 [1] | SMILES | also measured
12 | 6.46 | O=C(O)CC[C@H](NC(=O)C(CS)Cc1ccccc1)C(=O)Nc1cccc2ccccc12 (stereo partly drawn) [2(7), N-(3-mercapto-2RS-benzylpropionyl)-L-glutamic acid α-(1-naphthyl)amide] | 
13 | 6.72 | O=C(O)CC[C@H](NC(=O)C(CS)Cc1ccccc1)C(=O)Nc1cnccn1 (stereo partly drawn) [3(9), N-(3-mercapto-2RS-benzylpropionyl)-L-glutamic acid α-(pyrazin-2-yl) amide] | 
14 | 7.15 | Cc1ccc(CC(CS)C(=O)N[C@@H](CCC(=O)O)C(=O)Nc2ccccc2)cc1 (stereo partly drawn) [1(3), N-[3-mercapto-2RS-(4-methylbenzyl)-propionyl]-α-anilino-L-glutamic acid] | 
15 | 7.36 | O=C(O)CC[C@H](NC(=O)C(CS)Cc1ccccc1)C(=O)Nc1nc2ccccc2s1 (stereo partly drawn) [2(10), N-(3-mercapto-2RS-benzylpropionyl)-L-glutamic acid α-(2-benzthiazolyl) amide] | 
16 | 7.46 | O=C(O)CC[C@H](NC(=O)C(CS)Cc1ccccc1)C(=O)Nc1ccc(Cl)cn1 (stereo partly drawn) [3(4), N-(3-mercapto-2RS-benzylpropionyl)-L-glutamic acid α-(5-chloropyridin-2-yl)amide] | 
17 | 7.62 | CN(C)c1ccc(NC(=O)C[C@H](NC(=O)C(CS)Cc2ccccc2)C(=O)O)cc1 (stereo partly drawn) [12(7), N-(3-mercapto-2RS-benzylpropionyl)-β-[4-(N,N-dimethylamino)anilino]-L-aspartic acid] | 
18 | 7.68 | O=C(C[C@H](NC(=O)C(CS)Cc1ccccc1)C(=O)O)Nc1ccc(C(F)(F)F)cc1 (stereo partly drawn) [12(8), N-(3-mercapto-2RS-benzylpropionyl)-β-(4-trifluoromethylanilino)-L-aspartic acid] | 
19 | 7.89 | O=C(C[C@H](NC(=O)C(CS)Cc1ccccc1)C(=O)O)Nc1ccccc1 (stereo partly drawn) [Example 12, N-(3-mercapto-2RS-benzylpropionyl)-β-anilino-L-aspartic acid and the corresponding α-sodium salt] | 
